Measured values taken from patent US20250282742A1, “BENZOFURAN DERIVATIVES FOR TARGETING AUTOPHAGY” (Automera PTE. LTD, priority 2024, published 2025).

How the values were obtained:
Format in all cases: cell-based
[1] = tested on: p62 oligomers in HeLa cells; assay: p62 oligomerization assay (Western blot, 24 h treatment); settings: fold change of p62 oligomer levels relative to DMSO control
Procedure: (§1) HeLa cells were seeded in 6-well plates (700,000 cells) and allowed to adhere overnight. Media was replaced one hour before administering either vehicle (DMSO) or test compounds. After 24 hours of treatment, the media was discarded, and cells were rinsed once with ice-cold 1×PBS before detached from plates with ice-cold RIPA Lysis and Extraction Buffer (Thermo Fisher Scientific) which was supplemented with protease and phosphatase inhibitors. The resulting cell suspensions were transferred to pre-chilled microcentrifuge tubes, incubated on ice for 20 min with intermittent mixing and then centrifuged at 12,000 rpm for 20 min at 4° C. The supernatants were then aspirated slowly and transferred into new tubes kept on ice. The protein concentration in the samples was determined using BCA kit (Thermo Fisher Scientific) as per manufacturer's instructions.
(§2) For the p62 oligomerization and LC3 lipidation assays, cell lysates were prepared using RIPA buffer supplemented with 2% SDS and benzonase (Sigma). The lysates were then combined with 4× Laemmli protein sample buffer (Bio-Rad), heated at 70° C. for 10 min and subjected to a brief centrifugation of 10-15 seconds.
(§3) For p62 oligomerization and LC3 lipidation assays, lysates containing 30 μg of protein and for BRD4 and FKBP12(F36V) degradation assays, lysates containing 20 μg of protein, were loaded slowly into the wells of 4-20% gradient Tris-glycine gels (Bio-Rad). The gels were run at 100V until completion and transferred onto PVDF membranes. Membranes were blocked using 5% milk in TBS-Tween (0.1%) buffer at room temperature for 1 hour. The membranes were incubated with primary antibody in 5% milk-TBST with shaking, overnight at 4° C. The primary antibodies used were: p62 (Novus Biologicals 2C11, H00008878-MO1), LC3A/B (Cell Signalling Technology D3U4C, 12741S), FKBP12 (Abcam ab24373), BRD4 (Cell Signalling Technology E2A7X, 13440S), GAPDH (Cell Signalling Technology D4C6R, 97166S), and β-Actin (Proteintech 66009-1-Ig). Following primary antibody incubation, membranes were washed thrice with TBST 10 min before and after incubation with secondary-HRP conjugated antibody in 5% milk-TBST for 1 hour at room temperature. The secondary antibodies used were: Anti-Mouse IgG HRP Conjugate (Promega W4021B) and Anti-Rabbit IgG HRP Conjugate (Promega W4011B). For the p62 oligomerization assay, the total protein levels were assessed using Ponceau staining (Thermo Fisher Scientific) of PVDF membrane as per recommendation by manufacturer's guidelines.
(§4) Imaging was acquired using SuperSignal™ West Pico PLUS Chemiluminescent Substrate (Thermo Fisher Scientific) with iBright Invitrogen FL100 imaging system. Band signal intensity, reflective of protein concentrations, were quantified using Invitrogen™ iBright™ Analysis and Image J software.
HeLa cells were treated with compounds for 24 hours to evaluate the effect of these compounds on p62 oligomerisation activity. The resulting changes in levels of p62 oligomers were assessed by Western blotting, as described in experimental procedures. The fold change of p62 oligomer levels induced by compound treatment relative to vehicle control (DMSO) was determined and summarized in Table 8. Specifically, FIGS. 2A-C show Western blot images and their corresponding quantification showing the levels of high molecular weight (100-200 kDa) p62 oligomers by 24 hours compound treatments at listed concentrations, relative to vehicle control (DMSO) in HeLa cells. Protein loading consistencies was assessed by Ponceau staining (not shown).

[2] = tested on: LC3 protein (LC3-II/LC3-I) in HeLa cells; assay: LC3 lipidation assay (LC3-II/LC3-I, Western blot, 24 h treatment); settings: fold change in LC3-II/LC3-I relative to DMSO control
Procedure: as §1, §2, §3, §4
HeLa cells were treated with compounds for 24 hours to evaluate the effect of these compounds on LC3-II/LC3-I levels, a measure of autophagy activation. The changes in levels of LC3-I, LC3-II and β-Actin (loading control) were assessed by Western blotting, as described in experimental procedures. The fold increase of LC3-II/LC3-I levels induced by compound treatment relative to vehicle control (DMSO) was determined and summarized in Table 9. Specifically, FIGS. 3A-C show Western blot images and their corresponding quantification showing the lipidation levels of LC3 protein (LC3-II/LC3-I) by 24 hours compound treatments at listed concentrations, relative to vehicle control (DMSO) in HeLa cells.

p62 puncta in HeLa cells = assay: p62 puncta assay (immunocytochemistry and imaging, EVOS M7000 or Operetta CLS); settings: Homo sapiens, fold change in p62 puncta levels relative to DMSO control, 24 hr
Procedure: HeLa cells were seeded in coated 96-well plates (10,000 cells) and allowed to adhere overnight. After 24 hours of treatment with either vehicle (DMSO) or test compounds, the media was discarded, and cells were rinsed with ice-cold 1×PBS before fixation by 4% formaldehyde or paraformaldehyde for 20 min. Cells were then washed with 1×PBS and permeabilized with 0.1% Triton X-100 in PBS for 20 min and blocked with Blocking Buffer in PBS for 1 hour. The cells were incubated thereafter for 1 hour with anti-p62 primary antibody in Blocking Buffer, followed by incubation with secondary antibody for 1 hour. DAPI dye was used to visualize nuclei of fixed cells. The blocking buffer used were 5% Fetal Bovine Serum (FBS, ThermoFIsher Scientific, 10270106) and Li-cor Intercept (PBS) Blocking Buffer (Li-cor, 927-70001). The primary antibody used was mouse anti-p62 primary antibody (Novus Biologicals, H00008878-MO1). The secondary antibodies used were goat anti-mouse Alexa Fluor Plus 488 secondary antibody (Invitrogen, GOXMS) and goat anti-mouse Alexa Fluor 488 secondary antibody (Invitrogen, A-11029). The DAPI dyes used were DAPI dye (Invitrogen, 62248) and DAPI dye (Invitrogen, D1306).
For the EVOS M7000 System, cells were imaged on the EVOS M7000 microscope using a 20× air objective (Nikon, N.A 0.45). DAPI and p62 channels were illuminated with LED light cubes using integrated hard-coated filter sets for DAPI (357/447 nm) and GFP (470/525 nm) respectively. Images were analysed for p62 puncta count on the Celeste 6.0 software.
For the Operetta CLS System, cells were imaged on the Operetta CLS using a 63× water objective on the DAPI and Alexa 488 channels. Images were analysed for p62 puncta count on the Harmony 5.1 software.
HeLa cells were treated with compounds for 24 hours to evaluate the effect of these compounds on p62 puncta activity. The resulting changes in levels of p62 puncta were assessed by imaging, either on the EVOS M7000 or Operetta CLS systems as described in experimental procedures. The fold change of p62 puncta levels induced by compound treatment relative to vehicle control (DMSO) was determined and summarized in Table 10.

Row | SMILES | p62 oligomerization [1] | LC3 lipidation [2] | fold induction at 5 µM (p62 puncta in HeLa cells)
1 | Cc1c(Cc2ccccc2)oc2cc(CNCCO)ccc12 [Compound 42, 2-(((2-benzyl-3-methylbenzofuran-6-yl)methyl)amino)ethan-1-ol] | + (< 2-fold change relative to DMSO control) | + (< 2-fold change in LC3-II/LC3-I relative to DMSO control) | < 2
2 | OCCNCc1ccc2cc(-c3ccccc3)oc2c1 [Compound 2, 2-(((2-phenylbenzofuran-6-yl)methyl)amino)ethan-1-ol] | ++ (> 2-fold change relative to DMSO control) | ++ (> 2-fold change in LC3-II/LC3-I relative to DMSO control) | > 2
3 | OCCNCc1ccc2cc(Cc3ccc(Cl)cc3)oc2c1 [Compound 13, 2-(((2-(4-chlorobenzyl)benzofuran-6-yl)methyl)amino)ethan-1-ol] | ++ (> 2-fold change relative to DMSO control) | ++ (> 2-fold change in LC3-II/LC3-I relative to DMSO control) | > 2
4 | OCCNCc1ccc2cc(CCc3ccc(F)cc3)oc2c1 [Compound 49, 2-(((2-(4-fluorophenethyl)benzofuran-6-yl)methyl)amino)ethan-1-ol] | ++ (> 2-fold change relative to DMSO control) | + (< 2-fold change in LC3-II/LC3-I relative to DMSO control) | > 2
5 | OCCNCc1ccc2cc(Cc3ccccc3)oc2c1 [compound 1] | + (< 2-fold change relative to DMSO control) | + (< 2-fold change in LC3-II/LC3-I relative to DMSO control) | > 2
6 | OCCNCc1ccc2cc(Cc3ccc(F)cc3)oc2c1 [compound 12] | ++ (> 2-fold change relative to DMSO control) | + (< 2-fold change in LC3-II/LC3-I relative to DMSO control) | > 2
